pEC50: −log10 of the molar value. The source made the active and inactive calls. The rule behind the calls is not given here.
The compounds below were run against glutathione S-transferase (GST-GSH binding) (assay: GST–glutathione interaction disruption – biochemical, multiplex beads, flow cytometry, HPSMTB buffer, profiling panel (AID 1324;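 note: glutathione beads loaded with GST-green fluorescent protein and no fluorescent Bim peptide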)). Settings: multiplex bead flow cytometry, MCF.

Row | Structure (SMILES) | pEC50 | EC50
1 | Cc1cc(C)nc(SCc2cc(=O)c(OC(=O)c3ccc(Cl)c([N+](=O)[O-])c3)co2)n1 | 5.21 | –
2 | O=S1(=O)N=C(N(CCO)/N=C/c2ccncc2)c2ccccc21 | – | inactive
3 | CCOC(=O)c1c2c3c(cccc3[nH]c1=O)C(=O)c1ccccc1-2 | – | inactive
4 | CCOC(=O)c1c2c3c(c(Cl)ccc3[nH]c1=O)C(=O)c1ccccc1-2 | 5.27 | –
5 | CN(C)c1ncc(C2=C(Cl)C(=O)C(N3CCCC3)=C(Cl)C2=O)s1 | 5.05 | –
6 | CN1CCc2cccc3c2[C@@H]1Cc1ccc(O)c(O)c1-3 | – | inactive
7 | Cc1ccnc(Nc2nc(-c3c(C)nc4sccn34)cs2)c1 | – | inactive
8 | O=C(Nc1ccc2nc(-c3ccco3)c(-c3ccco3)nc2c1)NC1CC1 | 5.08 | –

Same assay, conditions: multiplex bead flow cytometry, MCF, hits give high values, concentration not given here

Row | Structure (SMILES) | percent span inhibition
9 | C#CCOCCOCCOCCNc1nc(N2CCN(C(=O)[C@H]([C@@H](C)CC)n3cc([C@@H](N)CC(C)C)nn3)CC2)nc(N2CCN(C(=O)[C@H](Cc3cc4ccccc4[nH]3)n3cc([C@@H](N)Cc4ccc(O)cc4)nn3)CC2)n1 | inactive
10 | COc1ccc(S(=O)(=O)NCCOc2cccc3cccnc23)cc1OC | inactive
11 | Cn1c(N)c(C(=O)COC(=O)c2cc(-c3ccco3)nc3ccccc23)c(=O)n(Cc2ccccc2)c1=O | inactive
12 | COc1ccc(/C=C2\SC(=O)NC2=S)cc1OC | inactive
13 | Cc1cc(-c2csc(N)n2)c(C)n1C | inactive
14 | Cc1sc2nc(C(C)C)nc(SCC(=O)N3c4ccccc4CC3C)c2c1C (stereo not given) | inactive
15 | Cc1nonc1NC(=O)CSc1nnc(-c2ccoc2C)n1C | inactive
16 | COc1ccc(NC(=O)c2ccc(CN3CCN(c4ccccc4)CC3)cc2)cc1 | inactive
17 | COc1ccc(NC(=O)c2cccs2)cc1 | inactive
18 | CCc1cccc(NC(=O)COc2ccccc2)c1 | inactive
19 | C/C(=N\NC(=O)Cn1nc(C)c([N+](=O)[O-])c1C)c1ccc(O)cc1 | inactive
20 | COCCNc1nc(=S)[nH]c2cc(OC)c(OC)cc12 | inactive
21 | S=c1[nH]cc(-c2ccccc2)n1-c1ccccc1 | inactive
22 | CC(C)NS(=O)(=O)c1ccc(OCC(=O)Nc2ccc(F)cc2)cc1 | inactive
23 | O=C(CSc1nnc(-c2cccs2)n1Cc1ccco1)c1ccc2c(c1)OCO2 | inactive
24 | Cc1cc(C)cc(-n2c(C)nc3cc(C(=O)O)ccc32)c1 | inactive
25 | CCOc1cccc(CNc2ccc(O)cc2)c1OCc1ccc(Cl)cc1 | inactive
26 | COc1cc(/C=C2\S/C(=N/S(=O)(=O)c3ccc(C)cc3)NC2=O)c([N+](=O)[O-])cc1OC | inactive
27 | Cc1ccc(-c2cc(-c3ccc(F)cc3)nc(N)c2C#N)o1 | inactive
28 | O=C1C=C(Nc2ccccc2)C(=O)c2ccccc21 | inactive
29 | Cc1ccc(C)c(Oc2ncnc(N)c2[N+](=O)[O-])c1 | inactive

Row | Structure (SMILES) | percent span inhibition
30 | CC1CC2=C(NC(=S)NC2c2ccccc2F)/C(=C/c2ccccc2F)C1 (stereo not given) | inactive
31 | O=C(Nc1nnc(COc2ccc(Cl)cc2)s1)c1ccco1 | inactive
32 | c1ccc(-c2nc(N3CCCCC3)nc3ccccc23)cc1 | inactive
33 | Cc1ccc(C)n1-c1ccc(N2CCOCC2)cc1 | inactive
34 | O=C1CCc2cc(S(=O)(=O)NCCCC(=O)N3CCN(Cc4ccc5c(c4)OCO5)CC3)ccc2N1 | inactive
35 | Nc1cccc(-c2cn3cccnc3n2)c1 | inactive
36 | CC1=CC(=O)c2ccccc2C1=O | inactive
37 | CCOc1cc(S(=O)(=O)Nc2ccccn2)ccc1F | inactive
38 | O=C(NCCCN1CCN(CCCNC(=O)c2cc([N+](=O)[O-])ccc2Cl)CC1)c1cc([N+](=O)[O-])ccc1Cl | inactive
39 | O=C(/C=C/c1ccc(-c2ccccc2[N+](=O)[O-])o1)c1ccc(F)cc1 | inactive
40 | Nc1c(C(=O)NCC2CCCO2)sc2nc3c(c(-c4ccco4)c12)CC/C3=C\c1ccco1 (stereo not given) | inactive
41 | Cc1ccc(C(=O)N(CCCN(C)C)c2nc3ccc(Cl)cc3s2)cc1C | inactive
42 | Cc1ccc(N=Cc2c(O)n(-c3ccc4c(c3)OCO4)c(=O)c3ccccc23)cc1 | inactive
43 | Cc1ccc(-n2[nH]c(C)c(/C=N/Nc3ccc([N+](=O)[O-])cc3[N+](=O)[O-])c2=O)cc1C | inactive
44 | O=c1nc2c(O)cccn2c2c1c(=O)[nH]c1ccccc12 | inactive
45 | Fc1ccc(Cn2nnnc2C(c2ccc(Cl)cc2)N2CCSCC2)cc1 (stereo not given) | inactive
46 | CCOC(=O)c1nc(Nc2ccc(N3CCC(C)CC3)cc2)c2ccccc2n1 | inactive
47 | O=C(Nc1nccs1)c1ccc(COc2ccc(F)cc2)o1 | inactive
48 | Cc1cc(NC(=O)CCCC(=O)NCc2ccccc2)no1 | inactive
49 | CCOc1ccc(C(=O)Nc2nnc(NC(=S)Nc3ccccc3)s2)cc1 | inactive
50 | CC1C=CCC2C(=O)N(c3ccc(OC(=O)c4cccs4)cc3)C(=O)C12 (stereo not given) | inactive

Row | Structure (SMILES) | percent span inhibition
51 | O=c1c2c(n3nnnc3n1Cc1ccccc1)-c1ccccc1CC21CCCC1 | inactive
52 | CC1(C)SC(=S)N(NC(=O)Nc2ccccc2)C1N(O)C(=O)Nc1cccc2ccccc12 (stereo not given) | inactive
53 | Cc1ccc(-c2cc(-c3ccccc3)c(C#N)c(N)n2)o1 | inactive
54 | O=C(NC1=NCCS1)NC12CC3CC(CC(C3)C1)C2 | inactive
55 | Cc1cc(C)c2nc3nc(C)cc(C)c3c(N)c2c1 | inactive
56 | S=c1[nH]cc(-c2ccccc2)n1-c1ccccc1Cl | inactive
57 | Cc1ccc(C(=O)NNC(=O)c2ccc3ncccc3c2)cc1 | inactive
58 | CCOC(=O)c1sc(N)c(C(=O)Nc2ccccc2OC)c1C | inactive
59 | O=c1[nH]c(SCc2nc3ccccc3c(=O)n2-c2ccccc2C(F)(F)F)nc2ccccc12 | inactive
60 | CCn1c(C)nc2cc(C(=O)N/N=C/c3ccc(O)c(O)c3O)ccc21 | inactive
61 | Cc1ccc2c(c1)c(C)c(C)n2CC(O)Cn1nc(C)c(Br)c1C (stereo not given) | inactive
62 | Cc1nc2scc(-c3ccccc3)c2c(=O)n1N=C1C=CC(=O)C=C1 | inactive
63 | C(=C\c1ccccc1)/CSc1nnc(-c2ccccn2)n1Cc1ccco1 | inactive
64 | CN(Cc1cccs1)C(=O)CCc1c[nH]c2ccccc12 | inactive
65 | COc1ccc(/C=C/C(=O)Nc2sc(Cc3ccccc3)c(C)c2C(N)=O)cc1 | inactive
66 | Cc1ccccc1-c1nc(-c2ccc(NC(=O)c3ccc4c(c3)OCO4)cc2)no1 | inactive
67 | OC(COc1ccc2cc(Br)ccc2c1)CN1CCOCC1 (stereo not given) | inactive
68 | CCNC(=S)Nc1cc(OCC)c(NC(=O)c2cccs2)cc1OCC | inactive
69 | COc1ccc(NC(=O)c2cc(-c3ccc(C)o3)nc3ccccc23)cc1OC | inactive
70 | Cn1c(=O)c(C(=O)COC(=O)c2cc(-c3ccco3)nc3ccccc23)c(N)n(CC2CC2)c1=O | inactive
